Assay results taken from patent US7381688B2, “Methylthiophene carboxanilides” (Bayer CropScience AG, priority 2002, dated 2008).
Read-outs that look alike come from different tables or passages of the source.

Key:
[1] = logP determination by HPLC (reverse-phase C 18), EEC Directive 79/831 Annex V.A8; type: physicochemical; conditions: reverse-phase C18 HPLC column, 43° C.
Procedure: The logP value given in the Preparation Examples and tables above are determined in accordance with EEC Directives 79/831 Annex V.A8 by HPLC (High Performance Liquid Chromatography) using a reverse-phase column (C 18). Temperature: 43° C.
The determination is carried out in the acidic range at pH 2.3 using the mobile phases 0.1% aqueous phosphoric acid and acetonitrile; linear gradient from 10% acetonitrile to 90% acetonitrile.
Calibration is carried out using unbranched alkan-2-ones (having 3 to 16 carbon atoms) with known logP values (determination of the logP values by the retention times using linear interpolation between two successive alkanones).

Venturia inaequalis = experiment: Venturia test (apple)/protective; type: in vivo; conditions: 240 h, protective, evaluation 10 days after inoculation, read-out: Efficacy in %
Procedure: Venturia Test (Apple)/Protective
• Solvents: 24.5 parts by weight acetone • 24.5 parts by weight dimethylacetamide • Emulsifier: 1.0 part by weight alkylaryl polyglycol ether
To produce a suitable preparation of the active compound, 1 part by weight of active compound is mixed with the stated amounts of solvents and emulsifier, and the concentrate is diluted with water to the desired concentration.
To test for protective activity, young plants are sprayed with the preparation of active compound at the stated application rate. After the spray coating has dried on, the plants are inoculated with an aqueous Conidia suspension of the apple scab pathogen Venturia inaequalis and then remain in an incubation cabin at about 20° C. and 100% relative atmospheric humidity for 1 day.
The plants are then placed in a greenhouse at about 21° C. and a relative atmospheric humidity of about 90%.
(§1) Evaluation is carried out 10 days after the inoculation. 0% means an efficacy which corresponds to that of the control, whereas an efficacy of 100% means that no infection is observed.

Sphaerotheca fuliginea = experiment: Sphaerotheca test (cucumber)/protective; type: in vivo; conditions: Podosphaera fuliginea, 168 h, protective, evaluation 7 days after inoculation, read-out: Efficacy in %
Procedure: Sphaerotheca Test (Cucumber)/Protective
(§2) • Solvents: 24.5 parts by weight of acetone • 24.5 parts by weight dimethylacetamide • Emulsifier: 1.0 part by weight alkylaryl polyglycol ether
(§3) To produce a suitable preparation of active compound, 1 part by weight of active compound is mixed with the stated amounts of solvents and emulsifier, and the concentrate is diluted with water to the desired concentration.
(§4) To test for protective activity, young plants are sprayed with the preparation of active compound at the stated application rate. After the spray coating has dried on, the plants are inoculated with an aqueous spore suspension of Sphaerotheca fuliginea. The plants are then placed in a greenhouse at about 23° C. and a relative atmospheric humidity of about 70%.
(§5) Evaluation is carried out 7 days after the inoculation. 0% means an efficacy which corresponds to that of the control, whereas an efficacy of 100% means that no infection is observed.

Podosphaera leucotricha = experiment: Podosphaera test (apple)/protective; type: in vivo; conditions: 240 h, protective, evaluation 10 days after inoculation, read-out: Efficacy in %
Procedure: Podosphaera Test (Apple)/Protective
as §2, §3
as §4, with “the apple mildew pathogen Podosphaera leucotricha.” for “Sphaerotheca fuliginea.”
as §1

Alternaria solani = experiment: Alternaria test (tomato)/protective; type: in vivo; conditions: protective, 750 g/ha, evaluation 7 days after inoculation
Procedure: Alternaria Test (Tomato)/Protective
• Solvent: 49 parts by weight N,N-dimethylformamide • Emulsifier: 1 part by weight of alkylaryl polyglycol ether
(§6) To produce a suitable preparation of active compound, 1 part by weight of active compound is mixed with the stated amounts of solvent and emulsifier, and the concentrate is diluted with water to the desired concentration.
To test for protective activity, young tomato plants are sprayed with the preparation of active compound at the stated application rate. 1 day after the treatment, the plants are inoculated with a spore suspension of Alternaria solani and then remain at 100% relative humidity and 20° C. for 24 h. The plants then remain at 96% relative atmospheric humidity and a temperature of 20° C.
as §5

Pyrenophora teres = Pyrenophora teres test (barley)/protective; type: in vivo; conditions: protective, 500 g/ha, evaluation 7 days after inoculation
Procedure: Pyrenophora teres Test (Barley)/Protective
• Solvent: 25 parts by weight N,N-dimethylacetamide • Emulsifier: 0.6 part by weight alkylaryl polyglycol ether
as §6
To test for protective activity, young plants are sprayed with the preparation of active compound at the stated application rate. After the spray coating has dried on, the plants are sprayed with a conidia suspension of Pyrenophora teres. The plants remain in an incubation cabin at 20° C. and 100% relative atmospheric humidity for 48 hours.
The plants are then placed in a greenhouse at a temperature of about 20° C. and relative atmospheric humidity of about 80%.
as §5

[2] = pH 2.3, HPLC, read-out: logP (pH 2.3)
[3] = Table 1, acidic range at pH 2.3, HPLC, read-out: logP

chromatographic logP [1, 2]	chromatographic logP [1, 3]	Compound	pest or weed control at 100 g/ha (Venturia inaequalis)	pest or weed control at 100 g/ha (Sphaerotheca fuliginea)	pest or weed control at 100 g/ha (Podosphaera leucotricha)	Efficacy in % (Alternaria solani)	Efficacy in % (Pyrenophora teres)
3.85		Cc1ccsc1C(=O)Nc1ccccc1-c1ccc(F)c(Cl)c1 [Example 1, N-(3′-chloro-4′-fluoro-1,1′-biphenyl-2-yl)-3-methyl-2-thiophenecarboxamide]	100%	100%	100%		
	4.12	Cc1ccsc1C(=O)Nc1ccccc1-c1ccc(Br)cc1 [Example 3]				100%	
	3.97	Cc1ccsc1C(=O)Nc1ccccc1-c1cccc(Cl)c1 [Example 5]	100%	93%	100%	100%	
	4.33	Cc1ccsc1C(=O)Nc1ccccc1-c1ccc(OC(F)(F)F)cc1 [Example 6]		100%	100%	100%	
	3.65	Cc1ccsc1C(=O)Nc1ccccc1-c1ccc(F)cc1 [Example 8]				100%	80%
	3.55	Cc1ccsc1C(=O)Nc1ccccc1-c1ccc(F)c(F)c1 [Example 9]	100%	100%	100%	100%	100%
	3.85	Cc1ccsc1C(=O)Nc1ccccc1-c1ccc(Cl)c(F)c1 [Example 10]	100%	100%	100%	100%	
	4.13	Cc1ccsc1C(=O)Nc1ccccc1-c1ccc(OC(F)(F)F)c(F)c1 [Example 11]	100%	100%	100%		
	4.37	Cc1ccsc1C(=O)Nc1ccccc1-c1ccc(OC(F)(F)F)c(C(F)(F)F)c1 [Example 12]		100%	100%		
		Cc1ccsc1C(=O)Nc1ccccc1-c1ccc(Cl)cc1F [Example 13]	100%	100%	100%		94%
	4.32	Cc1ccsc1C(=O)Nc1ccccc1-c1cc(Cl)cc(Cl)c1 [Example 15]	97%	100%	100%		
	5.76	Cc1ccsc1C(=O)Nc1ccccc1-c1ccc(Cl)cc1Cl [Example 19]	99%	96%	100%		
3.3		Cc1ccsc1C(=O)Nc1ccccc1Br [III-1, N-(2-bromophenyl)-3-methyl-2-thiophenecarboxamide]					
